Data from ChEMBL document CHEMBL3616429, “Chemical structure and biological activity of a quorum sensing pheromone from Bacillus subtilis subsp. natto” (2015).
Calls of active or inactive are those of the source. The rule behind the calls is not given here. *1 amine or outer side, *2 acyl side, *3 side chain or, on linkers, in order; H or OH if unused. Where a SMILES comes first, the peptide text is derived from it. [ ]: non-standard residue; d: D form. X1 = CC(C)=CCC/C(C)=C/CC/C(C)=C/C[C@]12C[C@@H](C(=O)[*:2])N([*:1])[C@@H]1Nc1ccccc12

Tests used:
Format in all cases: functional
Bacillus subtilis [1] = experiment: Induction of poly-gamma-glutamic acid production in Bacillus subtilis subsp. natto at >1 nM incubated for 72 hrs at 37 degC by ultra-filtration method
Bacillus subtilis [2] = experiment: Induction of poly-gamma-glutamic acid production in Bacillus subtilis subsp. natto at 10 nM incubated for 72 hrs at 37 degC by ultra-filtration method
Bacillus subtilis [3] = experiment: Induction of poly-gamma-glutamic acid production in Bacillus subtilis subsp. natto at 100 nM incubated for 72 hrs at 37 degC by ultra-filtration method
Bacillus subtilis [4] = experiment: Induction of poly-gamma-glutamic acid production in Bacillus subtilis subsp. natto at 1000 nM incubated for 72 hrs at 37 degC by ultra-filtration method

Molecule	Activity (Bacillus subtilis [1])	Activity (Bacillus subtilis [2])	fold change (FC) (Bacillus subtilis [3])	Activity (Bacillus subtilis [4])
CC[C@H](C)[C@H](NC(=O)[C@@H]1CCCN1C(=O)[C@@H]1CCCN1C(=O)[C@@H]1C[C@]2(C/C=C(\C)CC/C=C(\C)CCC=C(C)C)c3ccccc3N[C@H]2N1C(=O)[C@@H](N)CCCCN)C(=O)N[C@@H](CCC(=O)O)C(=O)O (H-K[X1]PPIE-OH)	Active	Active	2	
H-KWPPIE-OH				inactive
